The subject of this assay is CD8F1 mice, subcutaneous mammary adenocarcinoma, T/C%. Briefly: NCI In Vivo Anticancer Drug Screen. Data for tumor model Mammary Adenocarcinoma CD8F1 (subcutaneous) in CD8F1. Conditions: higher = larger tumour. Put shortly: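 Transplantable tumors were established in mice, animals were dosed with compound or vehicle, and survival or tumor size was then measured in both groups. The treated result was divided by the control result.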

The mark [1] stands for this setting: endpoint: median tumor weight (est.), dose: 1.0 mg/kg/injection, schedule: Q07DX005 (ip), vehicle: saline.
Setting [2] is: endpoint: median tumor weight (est.), dose: 2.0 mg/kg/injection, schedule: Q07DX005 (ip), vehicle: saline.
Setting [3] is: endpoint: median tumor weight (est.), dose: 4.0 mg/kg/injection, schedule: Q07DX005 (ip), vehicle: saline.
Where [4] appears, read: endpoint: median tumor weight (est.), dose: 8.0 mg/kg/injection, schedule: Q07DX005 (ip), vehicle: saline.
Where [5] appears, read: endpoint: median tumor weight (est.), dose: 16.0 mg/kg/injection, schedule: Q07DX005 (ip), vehicle: saline.
Setting [6] is: endpoint: median tumor weight change, dose: 125.0 mg/kg/injection, schedule: Q01DX001 (ip), vehicle: saline.
Setting [7] is: endpoint: median tumor weight change, dose: 250.0 mg/kg/injection, schedule: Q01DX001 (ip), vehicle: saline.
[8] abbreviates: endpoint: median tumor weight change, dose: 500.0 mg/kg/injection, schedule: Q01DX001 (ip), vehicle: saline.
[9] abbreviates: endpoint: median tumor weight change, dose: 1000.0 mg/kg/injection, schedule: Q01DX001 (ip), vehicle: saline.
Where [10] appears, read: endpoint: median tumor weight change, dose: 31.25 mg/kg/injection, schedule: Q01DX001 (ip), vehicle: saline with Tween-80.
Setting [11] is: endpoint: median tumor weight change, dose: 250.0 mg/kg/injection, schedule: Q01DX001 (ip), vehicle: saline with Tween-80.
[12] abbreviates: endpoint: median tumor weight change, dose: 125.0 mg/kg/injection, schedule: Q01DX001 (ip), vehicle: saline with Tween-80.

“And” between values parts separate entries of the source, which are not always exact repeats. Identical values can stand only once. Inconclusive results are not listed.

For `Nc1ncn(C2OC(CO)C(O)C2O)c(=O)n1` (configuration not stated), the T/C is 58 % of control (endpoint: mean tumor weight (est.), dose: 2.0 mg/kg/injection, schedule: Q07DX003 (ip), vehicle: other); 32 % of control (endpoint: mean tumor weight (est.), dose: 8.0 mg/kg/injection, schedule: Q07DX003 (ip), vehicle: other); 63 % of control under setting [1]; 81 % of control under setting [2]; 22 % of control under setting [3]; 20 % of control under setting [4]. For the same compound, the T/C was 22 % of control (endpoint: median tumor weight (est.), dose: 8.0 mg/kg/injection, schedule: Q07DX005 (ip), vehicle: suspension in saline); 3 % of control under setting [5]; 2 % of control (endpoint: median tumor weight (est.), dose: 16.0 mg/kg/injection, schedule: Q07DX005 (ip), vehicle: suspension in saline); 89 % of control (endpoint: median tumor weight change, dose: 3.75 mg/kg/injection, schedule: Q01DX001 (ip), vehicle: saline); 45 % of control (endpoint: median tumor weight change, dose: 7.5 mg/kg/injection, schedule: Q01DX001 (ip), vehicle: saline); 38 % of control (endpoint: median tumor weight change, dose: 15.0 mg/kg/injection, schedule: Q01DX001 (ip), vehicle: saline). Moreover, the T/C (endpoint: median tumor weight change, dose: 30.0 mg/kg/injection, schedule: Q01DX001 (ip), vehicle: saline) is 36 % of control; the T/C (endpoint: median tumor weight change, dose: 62.5 mg/kg/injection, schedule: Q01DX001 (ip), vehicle: saline) is 123 % of control; the T/C under setting [6] is 103 % of control; the T/C (endpoint: median tumor weight change, dose: 135.0 mg/kg/injection, schedule: Q01DX001 (ip), vehicle: saline) is 44 % of control; the T/C under setting [7] was 86 % of control; the T/C under setting [8] is 106 % of control. Further, the T/C is 17 % of control (endpoint: median tumor weight change, dose: 600.0 mg/kg/injection, schedule: Q01DX001 (ip), vehicle: suspension in saline); 103 % of control under setting [9]; -11 % of control (endpoint: median tumor weight change, dose: 1350.0 mg/kg/injection, schedule: Q01DX001 (ip), vehicle: suspension in saline); 60 % of control (endpoint: median tumor weight change, dose: 1800.0 mg/kg/injection, schedule: Q01DX001 (ip), vehicle: suspension in saline); 16 % of control (endpoint: median tumor weight change, dose: 2025.0 mg/kg/injection, schedule: Q01DX001 (ip), vehicle: suspension in saline); 43 % of control (endpoint: median tumor weight change, dose: 3600.0 mg/kg/injection, schedule: Q01DX001 (ip), vehicle: suspension in saline).

As to `O=C1N[C@H]2[C@H](O)[C@H](O)[C@@H](O)[C@H](O)[C@@H]2c2cc3c(c(O)c21)OCO3`, the T/C reads like this: (endpoint: median tumor weight change, dose: 1.25 mg/kg/injection, schedule: Q01DX005 (ip), vehicle: saline + alcohol) 110 % of control; (endpoint: median tumor weight change, dose: 2.5 mg/kg/injection, schedule: Q01DX005 (ip), vehicle: saline + alcohol) 66 % of control; (endpoint: median tumor weight change, dose: 5.0 mg/kg/injection, schedule: Q01DX005 (ip), vehicle: saline + alcohol) 48 % of control.

In the case of `CCOC(=O)[C@]1(Br)CC[C@@]1(Br)C(=O)OCC`, the T/C is, setting by setting: (endpoint: median tumor weight (est.), dose: 12.5 mg/kg/injection, schedule: Q07DX005 (ip), vehicle: saline with Tween-80) 117 % of control; (endpoint: median tumor weight (est.), dose: 25.0 mg/kg/injection, schedule: Q07DX005 (ip), vehicle: saline with Tween-80) 102 % of control; (endpoint: median tumor weight (est.), dose: 50.0 mg/kg/injection, schedule: Q07DX005 (ip), vehicle: saline with Tween-80) 95 % of control; (endpoint: median tumor weight (est.), dose: 100.0 mg/kg/injection, schedule: Q07DX005 (ip), vehicle: saline with Tween-80) 112 % of control; (endpoint: median tumor weight (est.), dose: 200.0 mg/kg/injection, schedule: Q07DX005 (ip), vehicle: saline with Tween-80) 95 % of control; (endpoint: median tumor weight (est.), dose: 400.0 mg/kg/injection, schedule: Q07DX005 (ip), vehicle: saline with Tween-80) 105 % of control.

Turning to `Cc1c(N)nc([C@H](CC(N)=O)NC[C@H](N)C(N)=O)nc1C(=O)N[C@H](C(=O)N[C@H](C)[C@@H](O)CC(=O)N[C@H](C(=O)NC(O[C@@H]1O[C@@H](C)[C@@H](N)[C@@H](O)[C@H]1O)C(O)c1nc(-c2nc(C(=O)NCCCCN)cs2)cs1)[C@@H](C)O)[C@@H](O[C@@H]1O[C@@H](CO)[C@@H](O)[C@H](O)[C@@H]1O[C@H]1O[C@H](CO)[C@@H](O)[C@H](OC(N)=O)[C@@H]1O)c1c[nH]cn1` (some centres not stated), the T/C reads like this: under setting [1], 55 % of control; under setting [2], 14 % of control and 26 % of control; under setting [3], 18 % of control and 19 % of control; under setting [4], 5 % of control; under setting [5], 5 % of control; (endpoint: median tumor weight (est.), dose: 32.0 mg/kg/injection, schedule: Q07DX005 (ip), vehicle: saline) 5 % of control. Moreover, the T/C is, setting by setting: (endpoint: median tumor weight change, dose: 4.0 mg/kg/injection, schedule: Q01DX001 (ip), vehicle: saline) 98 % of control; (endpoint: median tumor weight change, dose: 8.0 mg/kg/injection, schedule: Q01DX001 (ip), vehicle: saline) 55 % of control; (endpoint: median tumor weight change, dose: 16.0 mg/kg/injection, schedule: Q01DX001 (ip), vehicle: saline) 104 % of control; (endpoint: median tumor weight change, dose: 32.0 mg/kg/injection, schedule: Q01DX001 (ip), vehicle: saline) 52 % of control.

With `CCC1OCC(C(Cl)CCl)O1` (configuration not stated), the T/C is, setting by setting: (endpoint: median tumor weight (est.), dose: 25.0 mg/kg/injection, schedule: Q07DX005 (ip), vehicle: Klucel (hydroxypropylcellulose) (HPC)) 93 % of control; (endpoint: median tumor weight (est.), dose: 50.0 mg/kg/injection, schedule: Q07DX005 (ip), vehicle: Klucel (hydroxypropylcellulose) (HPC)) 109 % of control; (endpoint: median tumor weight (est.), dose: 100.0 mg/kg/injection, schedule: Q07DX005 (ip), vehicle: Klucel (hydroxypropylcellulose) (HPC)) 74 % of control.

`COC(=O)Nc1nc2ccc(SC)cc2c(=O)[nH]1`: the T/C is 79 % of control (endpoint: median tumor weight change, dose: 125.0 mg/kg/injection, schedule: Q01DX001 (ip), vehicle: Klucel (hydroxypropylcellulose) (HPC)); 61 % of control (endpoint: median tumor weight change, dose: 250.0 mg/kg/injection, schedule: Q01DX001 (ip), vehicle: Klucel (hydroxypropylcellulose) (HPC)); 57 % of control (endpoint: median tumor weight change, dose: 500.0 mg/kg/injection, schedule: Q01DX001 (ip), vehicle: Klucel (hydroxypropylcellulose) (HPC)).

For `O=C1CCC(=O)N1CO`, the T/C under setting [6] was 97 % of control, the T/C under setting [7] was 89 % of control, the T/C under setting [8] is 81 % of control and the T/C under setting [9] was 75 % of control.

Consider `COc1ccc(S(=O)(=O)N=N/C=C2\C=CC=CN2O)cc1OC`, for which the T/C was 60 % of control under setting [10]; 87 % of control (endpoint: median tumor weight change, dose: 62.5 mg/kg/injection, schedule: Q01DX001 (ip), vehicle: saline with Tween-80); 106 % of control under setting [11].

`OC(C1CO1)C(O)C1CO1` (configuration not stated): the T/C (endpoint: median tumor weight (est.), dose: 0.5 mg/kg/injection, schedule: Q07DX005 (ip), vehicle: saline) is 49 % of control; the T/C under setting [1] was 28 % of control; the T/C under setting [2] was 37 % of control; the T/C under setting [3] is 13 % of control; the T/C under setting [4] is 5 % of control.

As to `O=NN(CCCl)C(=O)NC1OC(CO)C(O)C(O)C1O` (configuration not stated), the T/C (endpoint: median tumor weight (est.), dose: 1.25 mg/kg/injection, schedule: Q07DX005 (ip), vehicle: saline) is 113 % of control; the T/C (endpoint: median tumor weight (est.), dose: 2.5 mg/kg/injection, schedule: Q07DX005 (ip), vehicle: saline) was 91 % of control; the T/C (endpoint: median tumor weight (est.), dose: 5.0 mg/kg/injection, schedule: Q07DX005 (ip), vehicle: saline) was 106 % of control; the T/C (endpoint: median tumor weight (est.), dose: 10.0 mg/kg/injection, schedule: Q07DX005 (ip), vehicle: saline) is 29 % of control.

For the compound `Cc1ccc2c(c1)N=C(Nc1ccccc1)N=S2(C)=O` (configuration not stated), the T/C is, setting by setting: (endpoint: median tumor weight change, dose: 7.81 mg/kg/injection, schedule: Q01DX001 (ip), vehicle: saline with Tween-80) 115 % of control; (endpoint: median tumor weight change, dose: 15.62 mg/kg/injection, schedule: Q01DX001 (ip), vehicle: saline with Tween-80) 121 % of control; under setting [10], 67 % of control; under setting [12], 93 % of control.

Regarding `CC1(C)CC2(C)OC2C2(C1)N=NC(=Nc1ccccc1)O2` (configuration not stated), the T/C under setting [12] was 78 % of control; the T/C under setting [11] was 64 % of control; the T/C (endpoint: median tumor weight change, dose: 500.0 mg/kg/injection, schedule: Q01DX001 (ip), vehicle: saline with Tween-80) is 41 % of control.

Source of the values: PubChem BioAssay AID220 (DTP/NCI, 2004).
